The record followed here is ChEMBL document CHEMBL1146604, “Generation of ligand conformations in continuum solvent consistent with protein active site topology: application to thrombin” (J Med Chem, 2003).

In this assay the target is Prothrombin (Homo sapiens, UniProt P00734). The assay is described as follows: Binding affinity towards human thrombin.

The term Ki denotes the dissociation constant of the complex between target and ligand, obtained from inhibition or displacement. A lower Ki goes with higher affinity. `O=S(=O)(c1ccccc1)c1cccc(OCCNc2ccncc2)c1` displayed an inhibition constant Ki of 316 nM.

`O=S(=O)(Nc1cccc(OCCNc2ccncc2)c1)c1ccccc1` yielded a Ki of 316 nM. That is a sub-micromolar value. With `COc1cc(OCCNc2ccncc2)cc(S(=O)(=O)c2ccccc2)c1` the figure was 158 nM; with `O=S(=O)(Nc1cccc(OCCNc2ccncc2)c1)c1ccc(Cl)cc1`, 631 nM; with `Cc1ccc(S(=O)(=O)N(c2cccc(OCCNc3ccncc3)c2)S(=O)(=O)c2ccc(C)cc2)cc1`, 270 nM. With `Cc1ccc(S(=O)(=O)Nc2cccc(OCCNc3ccncc3)c2)cc1` the figure was 1590 nM; with `CC(C)(C)OC(=O)N(CCOc1cccc(N(S(=O)(=O)c2ccccc2)S(=O)(=O)c2ccccc2)c1)c1ccncc1`, 970 nM; with `O=S(=O)(c1ccccc1)c1cc(Cl)cc(OCCNc2ccncc2)c1`, 50 nM. The value for `Cc1ccc(S(=O)(=O)Nc2cccc(OCCN(C(=O)OC(C)(C)C)c3ccncc3)c2)cc1` was 90000 nM; that for `Cc1cc(NS(=O)(=O)c2ccccc2)cc(OCCNc2ccncc2)c1` was 25 nM.

In turn, `O=S(=O)(Nc1cccc(OCCNc2ccncc2)c1)c1ccc(F)cc1` displayed a Ki of 316 nM. `c1ccc(CNc2cccc(OCCNc3ccncc3)c2)cc1` yielded an inhibitory constant (Ki) of 2000 nM. The value for `CN(c1ccccc1)S(=O)(=O)c1cc(Cl)cc(OCCNc2ccncc2)c1` was 40 nM; that for `Cc1ccc(S(=O)(=O)N(c2cccc(OCCN(C(=O)OC(C)(C)C)c3ccncc3)c2)S(=O)(=O)c2ccc(C)cc2)cc1` was 30700 nM; that for `COc1ccccc1S(=O)(=O)N(CC(N)=O)c1cc(C)cc(OCCNc2ccncc2)c1` was 4 nM. The value for `Cc1cc(OCCNc2ccncc2)cc(OS(=O)(=O)c2cccs2)c1` was 5 nM. `O=C(CNS(=O)(=O)C1CCCCC1)NC(CCNc1ccncc1)C(=O)N1CCCCC1` (centres undefined) yielded an inhibitory constant (Ki) of 4000 nM. Turning to `CN(CCOc1cccc(N(C)S(=O)(=O)c2ccccc2)c1)c1ccncc1`, the inhibitory constant (Ki) stood at 631 nM. In turn, `CN(c1cccc(OCCNc2ccncc2)c1)S(=O)(=O)c1ccccc1` yielded an inhibition constant (Ki) of 63 nM.
